SMILES strings stand for the structures.

For one data set, the system named is IL-23R. Nature of the data set: Real-time qRT-PCR gene expression in TH17 cells (IL-23R). Type of data set: cell-based, human. Further details: key: A: No change in gene expression observed relative to DMSO treated TH17 cells; B: Decreased gene expression observed relative to DMSO treated TH17 cells; C: Increased gene expression observed relative to DMSO treated TH17 cells. As to conditions: mRNA. On the procedure:
(§1) Peripheral blood mononuclear cells (PBMCs) were sourced from freshly prepared leukocyte enriched plasma (buffy coat) from healthy volunteers from which PBMCs were isolated by density gradient centrifugation using Ficoll-Paque™ PLUS (GE Healthcare). Naïve CD4+ T cells were isolated using the Naïve CD4+ T cell Isolation Kit II (Miltenyi Biotec) as per manufacturer's instructions. CD4+ T cells were plated at 5×10^4 cells/well in 96 well plates pre-coated with immobilized human (h)-αCD3 antibody (eBioscience) then differentiated to TH17 cells using h-αCD28, h-αIFN-γ, h-αIL-4, h-IL-6, h-IL-23, […], h-TGF-β1 (eBioscience) and maintained in a cell culture incubator at 37° C. with 5% CO2 in TexMACS Medium (Miltenyi Biotec) supplemented with 1% Penicillin/Streptomycin (Lonza) over 5 days.
(§2) RNA was isolated from TH17 cells and cDNA was synthesized using the Verso cDNA kit (Thermo Scientific) as per manufacturer's instructions. IL-17A, IL-17F, IL-21, IL-22, G-CSF, IL-23R and FOXP3 gene expression were determined for compound treated and untreated TH17 cell samples using Solaris qPCR Gene expression assays (Thermo Scientific) with an iCycler iQ Real-Time PCR Detection System (Bio-Rad). Individual gene expression was normalized to a panel of six reference genes (ACTB, TBP, HPRT1, PGK1, TFRC and PPIA) (Thermo Scientific) and analyzed by REST 2009 (Qiagen) in accordance to MIQE guidelines (Bustin, et al. (2009) Clin. Chem. 55, 611-622), which is hereby incorporated by reference in its entirety). The effects of compounds on TH17 cytokine mRNA levels are presented as fold change in gene expression of compound treated TH17 cells relative to DMSO treated cells in the table below.
For orientation: In qPCR the cycle at which signal appears reflects the starting amount.

In data set [1] the test system is IL-17F. Nature of the data set: TH17 cytokine inhibition as measured by ELISA (IL-17F). The data set is classed as cell-based. The following applies: 120 h; human CD4+ T cells differentiated to TH17 over 5 days, supernatant ELISA, vs DMSO. On the procedure:
as §1
(§3) Human CD4+ T cells were differentiated to TH17 cells as described in the presence or absence of various concentrations of compounds in a final concentration of 0.1% DMSO in TexMACS medium. Supernatants were collected and stored at −20° C. until they were to be assayed for IL-17A, IL-17F, IL-17AF, IL-21 and/or IL-22 levels as determined by Ready-Set-Go ELISA kits (eBioscience) as per manufacturer's instructions. Endpoint absorbance was read at 450 nm and 570 nm according to manufacturer's instructions (eBioscience) using a microplate reader (Perkin Elmer). The percentage of cytokine inhibition was calculated with reference to DMSO treated cells and the IC50s were determined by GraphPad Prism software and presented in the table below.
A general note: ELISA stands for enzyme-linked immunosorbent assay.

Data set [2] deals with IL-22. Put plainly: Real-time qRT-PCR gene expression in TH17 cells (IL-22). As to conditions: mRNA. Further details: key: A: No change in gene expression observed relative to DMSO treated TH17 cells; B: Decreased gene expression observed relative to DMSO treated TH17 cells; C: Increased gene expression observed relative to DMSO treated TH17 cells. The data set is classed as cell-based, human. On the procedure: as §1, §2

The next data set deals with TH17 cells. Put plainly: TH17 cellular proliferation (Prestoblue). The data set is classed as cell-based, human. The following applies: 3 μM compound, after 5 day TH17 differentiation, relative to DMSO treated cells. The procedure: as §1
Cellular proliferation was assessed in the presence or absence of 3 μM compound using Prestoblue® Cell Viability Reagent (Life Technologies) as per manufacturer's instructions using absorbance as the output measured by a microplate reader (Perkin Elmer) after 30 minutes of incubation of cells and reagent. A standard curve developed by plotting varying cell numbers versus absorbance was used to assess differences in cellular proliferation between compound treated or untreated cells after the 5 day TH17 differentiation period.

Data set [3] relates to IL-22. Put plainly: TH17 cytokine inhibition as measured by ELISA (IL-22). As to conditions: 120 h; human CD4+ T cells differentiated to TH17 over 5 days, supernatant ELISA, vs DMSO. Type of data set: cell-based. The procedure: as §1, §3
Data set [4] deals with IL-17F. Put plainly: Real-time qRT-PCR gene expression in TH17 cells (IL-17F). The data set is classed as cell-based, human. Further details: key: A: No change in gene expression observed relative to DMSO treated TH17 cells; B: Decreased gene expression observed relative to DMSO treated TH17 cells; C: Increased gene expression observed relative to DMSO treated TH17 cells. As to conditions: mRNA. On the procedure:
as §1, §2

Data set [5] can be described thus: TH17 cell viability (Prestoblue). Type of data set: cell-based. Further details: concentration or dose not given beside the values. The following applies: human; percentage of DMSO treated cells; read-out: % viability of compound treated TH17 cells. On the procedure:
as §1
Cells were assayed for viability in the presence or absence of compound using Prestoblue® Cell Viability Reagent (Life Technologies) as per manufacturer's instructions after 30 minutes incubation of TH17 cells with reagent. Absorbance was measured at 570 nm and 600 nm using a microplate reader (Perkin Elmer) and data were analyzed as per manufacturer's instructions. Cell viability was expressed as a percentage of DMSO treated cells.

The test system of a further data set is IL-17AF. Put plainly: TH17 cytokine inhibition as measured by ELISA (IL-17AF). Type of data set: cell-based. As to conditions: 120 h; human CD4+ T cells differentiated to TH17 over 5 days, supernatant ELISA, vs DMSO. On the procedure:
as §1, §3

For a further data set, the system named is FOXP3. Nature of the data set: Real-time qRT-PCR gene expression in TH17 cells (FOXP3). The data set is classed as cell-based, human. Details: key: A: No change in gene expression observed relative to DMSO treated TH17 cells; B: Decreased gene expression observed relative to DMSO treated TH17 cells; C: Increased gene expression observed relative to DMSO treated TH17 cells. As to conditions: mRNA. On the procedure: as §1, §2

The subject of the next data set is IL-21. Put plainly: Real-time qRT-PCR gene expression in TH17 cells (IL-21). The following applies: mRNA. Type of data set: cell-based, human. Details: key: A: No change in gene expression observed relative to DMSO treated TH17 cells; B: Decreased gene expression observed relative to DMSO treated TH17 cells; C: Increased gene expression observed relative to DMSO treated TH17 cells. On the procedure: as §1, §2

Data set [6] concerns IL-17A. Put plainly: TH17 cytokine inhibition as measured by ELISA (IL-17A). Type of data set: cell-based. As to conditions: 120 h; human CD4+ T cells differentiated to TH17 over 5 days, supernatant ELISA, vs DMSO. On the procedure: as §1, §3
Data set [7] deals with IL-17A. Nature of the data set: Real-time qRT-PCR gene expression in TH17 cells (IL-17A). Type of data set: cell-based, human. Details: key: A: No change in gene expression observed relative to DMSO treated TH17 cells; B: Decreased gene expression observed relative to DMSO treated TH17 cells; C: Increased gene expression observed relative to DMSO treated TH17 cells. As to conditions: mRNA. The procedure: as §1, §2

Another data set deals with human RORγ LBD (Homo sapiens (Human), UniProt P51449). Put plainly: RORγ LBD binding (Human RORγ Assay System, INDIGO Biosciences). The procedure: Compound binding to the human RORγ LBD was assessed using the Human RORγ Assay System (INDIGO Biosciences Inc.) as per manufacturer's instructions.
Chain of human RORγ LBD (P51449 269-508): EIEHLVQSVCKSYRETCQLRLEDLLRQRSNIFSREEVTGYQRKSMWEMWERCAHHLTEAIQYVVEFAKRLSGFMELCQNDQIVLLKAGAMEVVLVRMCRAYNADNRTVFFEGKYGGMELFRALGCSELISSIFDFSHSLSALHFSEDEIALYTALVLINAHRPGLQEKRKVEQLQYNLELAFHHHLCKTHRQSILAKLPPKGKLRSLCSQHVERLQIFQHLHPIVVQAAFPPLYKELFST

The term IC50 denotes the concentration needed to halve the response being measured. In general, viability refers to a per cent measure of how many cells are alive, often set against a control. Consider `NC(=O)c1ccc2c(c1)CCCN2Cc1ccc(C(O)(C(F)(F)F)C(F)(F)F)cc1` [Example 2, 1-(4-(1,1,1,3,3,3-hexafluoro-2-hydroxypropan-2-yl)benzyl)-1,2,3,4-tetrahydroquinoline-6-carboxamide], for which the “Change in gene expression of compound treated TH17 cells relative to DMSO treated cells, IL-23R” value in the data set on IL-23R is listed as “A”. Further, the half-inhibitory concentration (IC50) in the data set with IL-17F [1], in the data set with IL-22 [3], with IL-17AF and with IL-17A [6] was < 10 µM throughout. For the same compound, in the data set on IL-22 [2], the “Change in gene expression of compound treated TH17 cells relative to DMSO treated cells, IL-22” value is “A”. In the data set on TH17 cells, the “% change in TH17 cell number” value is on record as “B (≦50% decrease in cell proliferation relative to DMSO treated TH17 cells)”. In addition, the “Change in gene expression of compound treated TH17 cells relative to DMSO treated cells, IL-17F” value in the data set on IL-17F [4] is recorded as “A”. In addition, the viability in [5] was > 80%. Further, the “Change in gene expression of compound treated TH17 cells relative to DMSO treated cells, FOXP3” value in the data set on FOXP3 was “A”. For the same compound, in the data set on IL-21, the “Change in gene expression of compound treated TH17 cells relative to DMSO treated cells, IL-21” value is “A”. In addition, the “Change in gene expression of compound treated TH17 cells relative to DMSO treated cells, IL-17A” value with IL-17A [7] is “A”.
As for `CNC(=O)c1ccc2c(c1)CCCN2Cc1ccc(C(O)(C(F)(F)F)C(F)(F)F)cc1` [Example 3, 1-(4-(1,1,1,3,3,3-hexafluoro-2-hydroxypropan-2-yl)benzyl)-N-methyl-1,2,3,4-tetrahydroquinoline-6-carboxamide], the “Change in gene expression of compound treated TH17 cells relative to DMSO treated cells, IL-23R” value in the data set with IL-23R was “A”. The IC50 with IL-17F [1], on human RORγ LBD, in the data set with IL-22 [3], in the data set with IL-17AF and in the data set on IL-17A [6] was < 10 µM throughout. Further, in the data set on IL-22 [2], the “Change in gene expression of compound treated TH17 cells relative to DMSO treated cells, IL-22” value is recorded as “A”. In addition, the “% change in TH17 cell number” value in the data set with TH17 cells is on record as “B (≦50% decrease in cell proliferation relative to DMSO treated TH17 cells)”. Also, the “Change in gene expression of compound treated TH17 cells relative to DMSO treated cells, IL-17F” value in the data set on IL-17F [4] is listed as “A”. In addition, the viability in data set [5] is > 80%. In addition, in the data set with FOXP3, the “Change in gene expression of compound treated TH17 cells relative to DMSO treated cells, FOXP3” value is “A”. Moreover, the “Change in gene expression of compound treated TH17 cells relative to DMSO treated cells, IL-21” value in the data set with IL-21 is “A”. Besides, the “Change in gene expression of compound treated TH17 cells relative to DMSO treated cells, IL-17A” value with IL-17A [7] is “A”.
On to `CN(C)C(=O)c1ccc2c(c1)CCCN2Cc1ccc(C(O)(C(F)(F)F)C(F)(F)F)cc1` [Example 4, 1-(4-(1,1,1,3,3,3-hexafluoro-2-hydroxypropan-2-yl)benzyl)-N,N-dimethyl-1,2,3,4-tetrahydroquinoline-6-carboxamide], for which the “Change in gene expression of compound treated TH17 cells relative to DMSO treated cells, IL-23R” value in the data set with IL-23R is “A”. Further, the half-inhibitory concentration (IC50) in the data set on IL-17F [1], at human RORγ LBD, in the data set on IL-22 [3], in the data set with IL-17AF and in the data set with IL-17A [6] was < 10 µM in each case. The “Change in gene expression of compound treated TH17 cells relative to DMSO treated cells, IL-22” value in the data set on IL-22 [2] is reported as “A”. The “% change in TH17 cell number” value with TH17 cells is given as “B (≦50% decrease in cell proliferation relative to DMSO treated TH17 cells)”. In the data set on IL-17F [4], the “Change in gene expression of compound treated TH17 cells relative to DMSO treated cells, IL-17F” value is on record as “A”. Further, the viability in data set [5] is > 80%. Besides, the “Change in gene expression of compound treated TH17 cells relative to DMSO treated cells, FOXP3” value in the data set with FOXP3 is reported as “A”. For the same compound, the “Change in gene expression of compound treated TH17 cells relative to DMSO treated cells, IL-21” value in the data set with IL-21 is reported as “A”. Also, in the data set with IL-17A [7], the “Change in gene expression of compound treated TH17 cells relative to DMSO treated cells, IL-17A” value was “A”.
For `CNC(=O)c1ccc2c(c1)CCC(=O)N2Cc1ccc(C(O)(C(F)(F)F)C(F)(F)F)cc1` [Example 6, 1-(4-(1,1,1,3,3,3-hexafluoro-2-hydroxypropan-2-yl)benzyl)-N-methyl-2-oxo-1,2,3,4-tetrahydroquinoline-6-carboxamide], the IC50 was > 10 µM in the data set with IL-17F [1], > 10 µM at human RORγ LBD, < 10 µM with IL-17AF and > 10 µM in the data set on IL-17A [6]. Also, the viability in data set [5] was > 80%.

These data come from patent US9708268B2, “ROR modulators and their uses” (INNOV17 LLC, priority 2012, dated 2017).
